Measured values published in ChEMBL document CHEMBL5154721, “Discovery of HDAC6-Selective Inhibitor NN-390 with in Vitro Efficacy in Group 3 Medulloblastoma” (J Med Chem, 2022).

Target: T1, Histone deacetylase 11 (Homo sapiens, UniProt Q96DB2)
T1 sequence (Q96DB2 whole entry): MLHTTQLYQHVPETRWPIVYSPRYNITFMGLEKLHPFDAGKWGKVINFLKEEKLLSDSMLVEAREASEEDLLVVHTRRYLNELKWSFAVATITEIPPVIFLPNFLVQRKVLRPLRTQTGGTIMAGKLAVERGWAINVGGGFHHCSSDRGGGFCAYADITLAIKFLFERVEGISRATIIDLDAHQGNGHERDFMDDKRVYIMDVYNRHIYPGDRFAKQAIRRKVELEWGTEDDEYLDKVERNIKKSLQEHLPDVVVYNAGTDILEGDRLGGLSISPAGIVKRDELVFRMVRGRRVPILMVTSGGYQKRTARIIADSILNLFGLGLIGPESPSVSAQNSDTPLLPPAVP
Assay: Inhibition of full length human recombinant HDAC11 expressed in Sf9 baculovirus system using FAM-labeled acetylated peptide as substrate by measuring fluorescence intensity by EMSA method
Settings: not given

| SMILES | IC50 [µM] |
| --- | --- |
| O=C(NO)c1ccc(CN(C2CCCC2)S(=O)(=O)c2cc(F)c(F)c(F)c2F)cc1 | > 1 |
| O=C(NO)c1ccc2c(c1)CCN(S(=O)(=O)c1cc(F)c(F)c(F)c1F)C2 | > 1 |
| COc1cc(C(=O)NO)ccc1CN(C(C)C)S(=O)(=O)c1cc(F)c(F)c(F)c1F | > 1 |
| CC(C)N(Cc1ccc(C(=O)NO)cn1)S(=O)(=O)c1cc(F)c(F)c(F)c1F | > 1 |

The remaining lines, values ahead:

| IC50 [µM] | SMILES |
| --- | --- |
| > 1 | CC(C)N(Cc1ccc(CC(=O)NO)cc1)S(=O)(=O)c1cc(F)c(F)c(F)c1F |
| > 1 | CC(C)CN(Cc1ccc(C(=O)NO)cc1)S(=O)(=O)c1cc(F)c(F)c(F)c1F |
| > 1 | COCCN(Cc1ccc(C(=O)NO)cc1)S(=O)(=O)c1cc(F)c(F)c(F)c1F |
| > 1 | CC(C)N(Cc1ccc(C(=O)NO)cc1)Cc1cc(F)c(F)c(F)c1F |

Test system: not listed separately
Assay: Lipophilicity, logP of the compound
Type: physicochemical
Settings: octanol/water

| logP | SMILES |
| --- | --- |
| 4.07 | CC(C)N(Cc1ccc(C(=O)NO)cc1)Cc1cc(F)c(F)c(F)c1F |

Target: T2, Histone deacetylase 8 (Homo sapiens, UniProt Q9BY41)
T2 sequence (Q9BY41 whole entry): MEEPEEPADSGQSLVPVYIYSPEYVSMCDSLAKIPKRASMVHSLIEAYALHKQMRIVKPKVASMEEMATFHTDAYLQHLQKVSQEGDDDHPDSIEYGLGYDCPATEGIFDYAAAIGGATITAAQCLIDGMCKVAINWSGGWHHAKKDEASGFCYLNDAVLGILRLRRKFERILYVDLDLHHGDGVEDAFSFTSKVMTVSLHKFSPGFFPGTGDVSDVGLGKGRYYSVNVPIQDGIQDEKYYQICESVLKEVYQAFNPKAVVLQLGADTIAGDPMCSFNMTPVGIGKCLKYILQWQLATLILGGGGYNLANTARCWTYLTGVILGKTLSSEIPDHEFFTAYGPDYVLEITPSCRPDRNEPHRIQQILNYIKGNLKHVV
Assay: Inhibition of full length human recombinant HDAC8 expressed in Sf9 baculovirus system using FAM-labeled acetylated peptide as substrate by measuring fluorescence intensity by EMSA method
Settings: not given

| SMILES | IC50 [µM] |
| --- | --- |
| O=C(NO)c1ccc(CN(C2CCCC2)S(=O)(=O)c2cc(F)c(F)c(F)c2F)cc1 | > 1 |
| O=C(NO)c1ccc2c(c1)CCN(S(=O)(=O)c1cc(F)c(F)c(F)c1F)C2 | > 1 |
| COc1cc(C(=O)NO)ccc1CN(C(C)C)S(=O)(=O)c1cc(F)c(F)c(F)c1F | 0.474 |
| CC(C)N(Cc1ccc(C(=O)NO)cn1)S(=O)(=O)c1cc(F)c(F)c(F)c1F | > 1 |

Now from value to compound:

| IC50 [µM] | SMILES |
| --- | --- |
| 0.0846 | CC(C)N(Cc1ccc(CC(=O)NO)cc1)S(=O)(=O)c1cc(F)c(F)c(F)c1F |
| > 1 | CC(C)CN(Cc1ccc(C(=O)NO)cc1)S(=O)(=O)c1cc(F)c(F)c(F)c1F |
| > 1 | COCCN(Cc1ccc(C(=O)NO)cc1)S(=O)(=O)c1cc(F)c(F)c(F)c1F |
| > 1 | CC(C)N(Cc1ccc(C(=O)NO)cc1)Cc1cc(F)c(F)c(F)c1F |

Target: T3, Protein deacetylase HDAC6 (Homo sapiens, UniProt Q9UBN7)
T3 sequence (Q9UBN7 whole entry): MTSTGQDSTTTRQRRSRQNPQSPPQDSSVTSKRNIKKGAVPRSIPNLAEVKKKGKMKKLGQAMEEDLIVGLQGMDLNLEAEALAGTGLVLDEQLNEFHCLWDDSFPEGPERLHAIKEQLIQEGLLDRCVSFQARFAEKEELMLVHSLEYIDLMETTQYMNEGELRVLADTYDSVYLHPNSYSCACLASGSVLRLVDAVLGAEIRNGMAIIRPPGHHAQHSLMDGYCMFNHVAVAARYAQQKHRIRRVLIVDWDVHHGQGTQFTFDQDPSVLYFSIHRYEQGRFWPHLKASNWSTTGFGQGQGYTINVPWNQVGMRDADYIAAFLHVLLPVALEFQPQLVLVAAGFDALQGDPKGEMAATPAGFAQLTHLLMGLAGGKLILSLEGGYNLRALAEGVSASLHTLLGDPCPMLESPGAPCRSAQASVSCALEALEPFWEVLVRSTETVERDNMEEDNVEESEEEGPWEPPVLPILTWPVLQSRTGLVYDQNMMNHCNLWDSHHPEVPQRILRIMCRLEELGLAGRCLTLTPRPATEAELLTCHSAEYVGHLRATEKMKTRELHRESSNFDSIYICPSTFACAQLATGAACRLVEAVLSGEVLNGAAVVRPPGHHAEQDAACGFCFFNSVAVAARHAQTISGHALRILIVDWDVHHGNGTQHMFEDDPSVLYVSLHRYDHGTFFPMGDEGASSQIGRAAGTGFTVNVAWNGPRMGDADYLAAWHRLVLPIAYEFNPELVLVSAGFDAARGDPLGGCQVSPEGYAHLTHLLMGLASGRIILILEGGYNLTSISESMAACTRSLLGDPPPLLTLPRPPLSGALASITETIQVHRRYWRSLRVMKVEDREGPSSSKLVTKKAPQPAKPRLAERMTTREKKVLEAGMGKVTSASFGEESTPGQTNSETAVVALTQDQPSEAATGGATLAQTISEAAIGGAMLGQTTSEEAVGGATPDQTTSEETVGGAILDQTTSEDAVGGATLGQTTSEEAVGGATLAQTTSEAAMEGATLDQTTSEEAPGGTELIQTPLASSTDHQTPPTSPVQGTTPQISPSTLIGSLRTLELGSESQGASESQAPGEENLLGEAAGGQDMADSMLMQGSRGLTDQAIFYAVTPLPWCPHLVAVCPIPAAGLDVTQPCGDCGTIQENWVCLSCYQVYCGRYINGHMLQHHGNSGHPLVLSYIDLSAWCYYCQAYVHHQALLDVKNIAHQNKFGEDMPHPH
Assay: Inhibition of full length human recombinant HDAC6 expressed in Sf9 baculovirus system using FAM-labeled acetylated peptide as substrate by measuring fluorescence intensity by EMSA method
Settings: not given

| SMILES | IC50 [µM] |
| --- | --- |
| O=C(NO)c1ccc(CN(C2CCCC2)S(=O)(=O)c2cc(F)c(F)c(F)c2F)cc1 | 0.0499 |
| O=C(NO)c1ccc2c(c1)CCN(S(=O)(=O)c1cc(F)c(F)c(F)c1F)C2 | 0.0504 |
| COc1cc(C(=O)NO)ccc1CN(C(C)C)S(=O)(=O)c1cc(F)c(F)c(F)c1F | > 1 |
| CC(C)N(Cc1ccc(C(=O)NO)cn1)S(=O)(=O)c1cc(F)c(F)c(F)c1F | 0.121 |

The next lines start with the values.

| IC50 [µM] | SMILES |
| --- | --- |
| 0.143 | CC(C)N(Cc1ccc(CC(=O)NO)cc1)S(=O)(=O)c1cc(F)c(F)c(F)c1F |
| 0.0246 | CC(C)CN(Cc1ccc(C(=O)NO)cc1)S(=O)(=O)c1cc(F)c(F)c(F)c1F |
| 0.0278 | COCCN(Cc1ccc(C(=O)NO)cc1)S(=O)(=O)c1cc(F)c(F)c(F)c1F |
| 0.0162 | CC(C)N(Cc1ccc(C(=O)NO)cc1)Cc1cc(F)c(F)c(F)c1F |

Test system: MV4-11
Assay: cells
Type: functional, cell-based
Settings: Homo sapiens, MV4-11, 72 h

| SMILES | IC50 [µM] |
| --- | --- |
| O=C(NO)c1ccc(CN(C2CCCC2)S(=O)(=O)c2cc(F)c(F)c(F)c2F)cc1 | 2.71 |
| O=C(NO)c1ccc2c(c1)CCN(S(=O)(=O)c1cc(F)c(F)c(F)c1F)C2 | 0.9 |
| COc1cc(C(=O)NO)ccc1CN(C(C)C)S(=O)(=O)c1cc(F)c(F)c(F)c1F | 5.66 |
| CC(C)N(Cc1ccc(C(=O)NO)cn1)S(=O)(=O)c1cc(F)c(F)c(F)c1F | 1 |

Results, then the compound that gave them:

| IC50 [µM] | SMILES |
| --- | --- |
| 2.5 | CC(C)N(Cc1ccc(CC(=O)NO)cc1)S(=O)(=O)c1cc(F)c(F)c(F)c1F |
| 0.52 | CC(C)CN(Cc1ccc(C(=O)NO)cc1)S(=O)(=O)c1cc(F)c(F)c(F)c1F |
| 0.66 | COCCN(Cc1ccc(C(=O)NO)cc1)S(=O)(=O)c1cc(F)c(F)c(F)c1F |
| 7.43 | CC(C)N(Cc1ccc(C(=O)NO)cc1)Cc1cc(F)c(F)c(F)c1F |

Test system: not listed separately
Assay: Competitive inhibition of N-terminal His-SUMO tagged zebra fish recombinant HDAC6 catalytic domain 2 transfected with pET28b(+) vector in Escherichia coli BL21 (DE3) RILP cells incubated for 10 mins followed by addition of FITC-M344 measured af ter 10 mins by fluorescence polarization assay
Set-up: species or system Danio rerio
Settings: not given

| SMILES | IC50 [µM] |
| --- | --- |
| O=C(NO)c1ccc(CN(C2CCCC2)S(=O)(=O)c2cc(F)c(F)c(F)c2F)cc1 | 0.356 |
| CC(C)CN(Cc1ccc(C(=O)NO)cc1)S(=O)(=O)c1cc(F)c(F)c(F)c1F | 0.137 |
| CC(C)N(Cc1ccc(C(=O)NO)cn1)S(=O)(=O)c1cc(F)c(F)c(F)c1F | 1.13 |

Test system: MM1.S
Assay: Cytotoxicity against human MM1.S cells assessed as inhibition of cell growth incubated for 72 hrs measured by spectrophotometer analysis
Type: functional, cell-based
Settings: not given

| SMILES | IC50 [µM] |
| --- | --- |
| CC(C)N(Cc1ccc(CC(=O)NO)cc1)S(=O)(=O)c1cc(F)c(F)c(F)c1F | 2.4 |
| O=C(NO)c1ccc(CN(C2CCCC2)S(=O)(=O)c2cc(F)c(F)c(F)c2F)cc1 | 3.3 |
| O=C(NO)c1ccc2c(c1)CCN(S(=O)(=O)c1cc(F)c(F)c(F)c1F)C2 | 1.54 |
| CC(C)CN(Cc1ccc(C(=O)NO)cc1)S(=O)(=O)c1cc(F)c(F)c(F)c1F | 0.69 |
| COc1cc(C(=O)NO)ccc1CN(C(C)C)S(=O)(=O)c1cc(F)c(F)c(F)c1F | 5.75 |
| COCCN(Cc1ccc(C(=O)NO)cc1)S(=O)(=O)c1cc(F)c(F)c(F)c1F | 0.71 |
| CC(C)N(Cc1ccc(C(=O)NO)cn1)S(=O)(=O)c1cc(F)c(F)c(F)c1F | 1.6 |
| CC(C)N(Cc1ccc(C(=O)NO)cc1)Cc1cc(F)c(F)c(F)c1F | 11.3 |

Target: Histone deacetylase 3 (Homo sapiens, UniProt O15379)
Assay: Inhibition of full length human recombinant HDAC3 expressed in Sf9 baculovirus system using FAM-labeled acetylated peptide as substrate by measuring fluorescence intensity by EMSA method
Settings: not given

Chain of Histone deacetylase 3 (O15379 whole entry): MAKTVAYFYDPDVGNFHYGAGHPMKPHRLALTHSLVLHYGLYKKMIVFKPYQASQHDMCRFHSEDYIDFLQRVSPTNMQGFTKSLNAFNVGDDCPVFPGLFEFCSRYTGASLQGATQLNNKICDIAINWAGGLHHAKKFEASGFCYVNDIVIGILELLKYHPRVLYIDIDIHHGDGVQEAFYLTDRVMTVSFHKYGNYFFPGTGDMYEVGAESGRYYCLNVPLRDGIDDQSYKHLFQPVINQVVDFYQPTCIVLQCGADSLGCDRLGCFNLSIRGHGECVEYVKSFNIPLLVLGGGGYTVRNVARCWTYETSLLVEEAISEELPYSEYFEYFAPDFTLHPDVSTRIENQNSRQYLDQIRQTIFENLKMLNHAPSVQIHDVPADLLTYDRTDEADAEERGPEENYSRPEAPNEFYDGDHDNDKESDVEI

| SMILES | IC50 [µM] |
| --- | --- |
| O=C(NO)c1ccc(CN(C2CCCC2)S(=O)(=O)c2cc(F)c(F)c(F)c2F)cc1 | > 1 |
| O=C(NO)c1ccc2c(c1)CCN(S(=O)(=O)c1cc(F)c(F)c(F)c1F)C2 | > 1 |
| COc1cc(C(=O)NO)ccc1CN(C(C)C)S(=O)(=O)c1cc(F)c(F)c(F)c1F | > 1 |
| CC(C)N(Cc1ccc(C(=O)NO)cn1)S(=O)(=O)c1cc(F)c(F)c(F)c1F | > 1 |

Other lines, results leading:

| IC50 [µM] | SMILES |
| --- | --- |
| > 1 | CC(C)N(Cc1ccc(CC(=O)NO)cc1)S(=O)(=O)c1cc(F)c(F)c(F)c1F |
| > 1 | CC(C)CN(Cc1ccc(C(=O)NO)cc1)S(=O)(=O)c1cc(F)c(F)c(F)c1F |
| > 1 | COCCN(Cc1ccc(C(=O)NO)cc1)S(=O)(=O)c1cc(F)c(F)c(F)c1F |
| 0.899 | CC(C)N(Cc1ccc(C(=O)NO)cc1)Cc1cc(F)c(F)c(F)c1F |

Test system: not listed separately
Assay: in vitro
Settings: human, MRC9 cells

| SMILES | IC50 at 72 h [µM] |
| --- | --- |
| O=C(NO)c1ccc(CN(C2CCCC2)S(=O)(=O)c2cc(F)c(F)c(F)c2F)cc1 | > 50 |
| O=C(NO)c1ccc2c(c1)CCN(S(=O)(=O)c1cc(F)c(F)c(F)c1F)C2 | > 25 |
| COc1cc(C(=O)NO)ccc1CN(C(C)C)S(=O)(=O)c1cc(F)c(F)c(F)c1F | > 50 |
| CC(C)N(Cc1ccc(C(=O)NO)cn1)S(=O)(=O)c1cc(F)c(F)c(F)c1F | > 50 |

The remaining lines, values ahead:

| IC50 at 72 h [µM] | SMILES |
| --- | --- |
| > 25 | CC(C)N(Cc1ccc(CC(=O)NO)cc1)S(=O)(=O)c1cc(F)c(F)c(F)c1F |
| > 50 | CC(C)CN(Cc1ccc(C(=O)NO)cc1)S(=O)(=O)c1cc(F)c(F)c(F)c1F |
| > 25 | COCCN(Cc1ccc(C(=O)NO)cc1)S(=O)(=O)c1cc(F)c(F)c(F)c1F |
| > 50 | CC(C)N(Cc1ccc(C(=O)NO)cc1)Cc1cc(F)c(F)c(F)c1F |
